Bridge positions count the residues as written; N and C are the ends. Square brackets hold non-standard residues; d marks the D form. Peptide text beside a SMILES is read from it. R8 = C=CCCCCCC[C@@](C)(N)C(=O)O; S5 = C=CCCC[C@](C)(N)C(=O)O
How the values were obtained:
[1] = circular dichroism; conditions: 10 mM phosphate; pH 7.5; 25 °C; 50 uM
[2] = molecular target: 5HB, a recombinant protein containing 3 HR1 domains covalently attached to 2 HR2 domains; conditions: for Kd: competition with fluorescently labeled T108 probe (2 nM), 5HB 50 nM, 10 min preincubation + 30 min room temperature, duplicates; for competition with binding of fluorescently labeled T108 to recombinant 5HB (in words): Ala-scan variants, FP
Text: The RSV HR2 region (residues 476 to 524) is a 49-amino-acid sequence that has been extensively characterized (Fig. 1). HR2 is a largely unstructured peptide in aqueous solution folding into an α-helix upon binding to trimeric HR1 coiled coils ([20]). […] We reduced HR2 (aa 483 to 516) into three short overlapping subdomains (subdomains 1 to 3) (Fig. 1). These peptides were scanned for various stapling combinations. […] Far-UV circular dichroism (CD) spectropolarimetry was used to investigate the effect of stapling on the α-helical content of the peptides. […] To assess the propensity of the stapled peptides to hinder the formation of the postfusion six-helix bundle required for viral cell entry, we used a 5-helix bundle (5HB) biochemical fluorescence polarization (FP) competition assay as previously described ([21], [22]).
The coding sequence of 5HB was designed as described previously and de novo synthesized by Genscript ([21]). The HR1 (aa 126 to 182) and HR2 (aa 476 to 524) coding sequences from wild-type RSV A2 strain F ([36]) were codon optimized for overexpression in Escherichia coli and cloned at NdeI/BamHI restriction sites of pET-15b to generate the expression plasmid for 5HB. The 5HB expression construct was transformed into Escherichia coli BL21(DE3). Cells were grown at 37°C to an optical density at 600 nm of 0.8 followed by induction with isopropyl-1-thio-β-D-galactopyranoside at a final concentration of 0.5 mM for 12 to 15 h. Cells were harvested by centrifugation, washed twice with PBS, and resuspended in 20 ml of PBS (pH 7.4), 500 mM NaCl, and 1% Triton X-100 supplemented with complete protease inhibitor. Cell suspensions were disrupted by sonication. Cell debris was removed through ultracentrifugation at 18,000 × g for 1 h at 4°C, and clarified cell lysate was mixed with 1 ml of nickel-nitrilotriacetic acid (Ni-NTA) agarose beads (Qiagen) preequilibrated with 20 ml of lysis buffer. The suspension was agitated for 1 h at 4°C and loaded onto a 5-ml polypropylene column (Qiagen). The column was washed twice with 8 ml of PBS (pH 7.4), 500 mM NaCl, 1% Triton X-100, and 100 mM imidazole. Proteins were eluted with 5 × 500 μl of a buffer containing PBS (pH 7.4), 300 mM imidazole, and 500 mM NaCl. The imidazole was removed by dialysis, and protein purity was assessed by SDS-polyacrylamide gel electrophoresis followed by Coomassie blue staining. Protein concentration was determined with the Qubit 2.0 Fluorometer (Life Technologies).
The T108 ([12]) peptide probe was synthesized by standard SPPS procedures using HCTU as a coupling reagent as described above. A 10-μl volume of recombinant 5HB protein in FP buffer (20 mM PBS [pH 7.4], 500 mM NaCl, 0.01% [vol/vol] Tween 20, and 0.05 mg/ml bovine gamma globulin) was preincubated for 10 min at room temperature with 10 μl of the appropriate concentration of the inhibitor, after which 10 μl of fluorescein isothiocyanate (FITC)-T106 was added and further incubated for 30 min at room temperature. The final concentrations of protein and probe were 50 nM and 2 nM, respectively. The fluorescence polarization assay was performed in 384-well plates using a Spectramax Paradigm (Molecular Devices), using excitation and emission wavelengths of 485 nm and 535 nm, respectively. The acquisition time was 700 ms, and the read height was 1 mm. All experiments were performed in duplicate. […] In order to ensure robust fitting for some fits, r0 was kept constant at the value measured for the free tracer in buffer.

[3] = tested on: recombinant GFP-expressing RSV (strain A2) in A549 cells; format: cell-based, human respiratory syncytial virus; conditions: A549 cells, eGFP RSV, GFP-positive cells by FACS 24 h p.i.
Experimental: A549 cells were infected with a recombinant green fluorescent protein (GFP)-expressing RSV (strain A2) ([23]), and the inhibitory activity of the peptide was quantified by flow cytometry.
Each peptide was diluted 3 times by 2-fold serial dilutions. eGFP RSV virus at an MOI of 0.5 was used for the infection, and GFP-positive cells were counted by FACS analysis 24 h p.i. The GFP data were normalized to the fluorescence values observed with virus only and plotted as percent inhibition.
Serial 4-fold dilutions of inhibitors were mixed with eGFP-encoding RSV virus ([23]) with a volume of virus required to achieve approximately 50% of infection in medium containing 2% fetal calf serum. The resulting mixture was added to 24-well plates containing A549 cells. Cells were incubated for 2 h at 37°C, the medium was replaced, and cells were incubated for an additional 24 h. Cells were treated with 300 μl of trypsin for 10 min at 37°C, and the detached cells were diluted in 1 ml of culture medium. Following centrifugation at 1,700 rpm, the pellet was resuspended in 300 μl of PBS–1% fetal bovine serum (FBS) (vol/vol) and GFP-positive cells were counted by fluorescence-activated cell sorter (FACS) analysis. The GFP data were normalized to the fluorescence value observed with virus only. The resulting inhibition curves were fitted in Igor Pro as described above.

[4] = tested on: rHRSV-mCherry in HEp-2 cells; experiment: rHRSV-mCherry inhibition assay; format: cell-based, human respiratory syncytial virus; conditions: Table 3 (Ala scan); HEp-2 cells, rHRSV-mCherry MOI 0.2, 2-fold serial dilutions (11 dilutions), duplicate; ± SD of fit
Procedure, shortened: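 HEp-2 cells infected at MOI 0.2 with rHRSV-mCherry preincubated 15–20 min with serially diluted peptide, peptide kept in 2% FBS medium for 48 h at 37°C. Replication read as mCherry fluorescence (ex 580/em 620 nm), normalized to untreated infected cells; duplicates, curves fitted.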

| Structure (SMILES) | helicity [1] [%] | Kd [2] [µM] | inhibition of RSV-eGFP infection (in words) [3] | competition with binding of fluorescently labeled T108 to recombinant 5HB (in words) [2] | EC50 [4] [µM] |
| --- | --- | --- | --- | --- | --- |
| CC[C@H](C)[C@@H]1NC(=O)[C@H](Cc2ccccc2)NC(=O)[C@@](C)(NC(=O)[C@H](CC(C)C)NC(=O)[C@H](CO)NC(=O)[C@H](CCC(N)=O)NC(=O)[C@H](CCC(=O)O)NC(C)=O)CCCC=CCCC[C@@](C)(C(=O)N[C@@H](CO)C(=O)N[C@@H](CC(=O)O)C(=O)N[C@@H](CCC(=O)O)C(=O)N[C@@H](CC(C)C)C(=O)N[C@@H](CC(C)C)C(=O)N[C@@H](Cc2c[nH]cn2)C(=O)N[C@@H](CC(N)=O)C(=O)N[C@H](C(N)=O)C(C)C)NC(=O)[C@H](CCCNC(=N)N)NC1=O [Peptide 3a] (Ac-EQSL[S5]FIR[S5]SDELLHNV-NH2; staple 5-9) | 33.9 | 5.8 ± 1.8 | none |  |  |
| CC[C@H](C)[C@H](NC(=O)[C@H](Cc1ccccc1)NC(=O)[C@H](C)NC(=O)[C@H](CC(C)C)NC(=O)[C@H](CO)NC(=O)[C@H](CCC(N)=O)NC(=O)[C@H](CCC(=O)O)NC(C)=O)C(=O)N[C@@H](CCCNC(=N)N)C(=O)N[C@]1(C)CCCCCCC=CCCC[C@@](C)(C(=O)N[C@H](C(N)=O)C(C)C)NC(=O)[C@H](Cc2c[nH]cn2)NC(=O)[C@H](CC(C)C)NC(=O)[C@H](CC(C)C)NC(=O)[C@H](CCC(=O)O)NC(=O)[C@H](CC(=O)O)NC(=O)[C@H](CO)NC1=O [Peptide 3f] (Ac-EQSLAFIR[R8]SDELLH[S5]V-NH2; staple 9-16) | 26.4 | 4.1 ± 1.9 | none |  |  |
| CC[C@H](C)[C@@H]1NC(=O)[C@H](CO)NC(=O)[C@](C)(NC(=O)[C@H](CC(=O)O)NC(=O)[C@H](Cc2ccccc2)NC(C)=O)CCCCCCC=CCCC[C@@](C)(C(=O)N[C@@H](CCCCN)C(=O)N[C@H](C(=O)N[C@@H](CC(N)=O)C(=O)N[C@@H](CCC(N)=O)C(=O)N[C@@H](CO)C(=O)N[C@@H](CC(C)C)C(=O)N[C@@H](C)C(=O)N[C@@H](Cc2ccccc2)C(=O)N[C@H](C(=O)N[C@]2(C)CCCCCCC=CCCC[C@@](C)(C(=O)N[C@@H](CC(N)=O)C(=O)N[C@H](C(=O)N[C@@H](CC(N)=O)C(=O)N[C@@H](C)C(=O)NCC(=O)N[C@@H](CCCCN)C(=O)N[C@@H](CO)C(=O)N[C@H](C(N)=O)[C@@H](C)O)C(C)C)NC(=O)[C@H](CC(C)C)NC(=O)[C@H](CC(C)C)NC(=O)[C@H](CCC(=O)O)NC(=O)[C@H](CC(=O)O)NC(=O)[C@H](CO)NC(=O)[C@H](CCCCN)NC2=O)[C@@H](C)CC)[C@@H](C)CC)NC(=O)[C@H](CC(N)=O)NC(=O)[C@H](C(C)C)NC(=O)[C@H](CCC(N)=O)NC(=O)[C@H](CO)NC1=O [RSV-SAHBD (Z), reference compound] |  |  | potency similar to that of peptides 4bb and 4ca |  |  |
| CC[C@H](C)[C@H](NC(=O)[C@H](CCCCN)NC(=O)[C@]1(C)CCCC=CCCCCCC[C@@](C)(NC(=O)[C@H](CC(=O)O)NC(=O)[C@H](Cc2ccccc2)NC(=O)[C@H](CCC(=O)O)NC(=O)[C@H](CC(=O)O)NC(=O)[C@H](CO)NC(=O)[C@@H]2CCCN2C(=O)[C@H](Cc2ccccc2)NC(=O)[C@H](CCC(=O)O)NC(C)=O)C(=O)N[C@@H](CO)C(=O)N[C@@H]([C@@H](C)CC)C(=O)N[C@@H](CO)C(=O)N[C@@H](CCC(N)=O)C(=O)N[C@@H](C(C)C)C(=O)N[C@@H](CC(N)=O)C(=O)N1)C(=O)N[C@@H](CC(N)=O)C(N)=O [Peptide 1b] (Ac-EFPSDEFD[R8]SISQVN[S5]KIN-NH2; staple 9-16) | 19.8 | 47 ± 6 | none |  |  |
| CC[C@H](C)[C@H](NC(=O)[C@H](Cc1ccccc1)NC(=O)[C@]1(C)CCCC=CCCC[C@](C)(NC(=O)[C@@H](NC(=O)[C@H](CCCCN)NC(=O)[C@H](CCC(=O)O)NC(C)=O)[C@@H](C)CC)C(=O)N[C@@H](CCC(N)=O)C(=O)N[C@@H](CO)C(=O)N[C@@H](CC(C)C)C(=O)N1)C(=O)N[C@@]1(C)CCCC=CCCC[C@@](C)(C(=O)N[C@@H](CC(C)C)C(=O)N[C@@H](CC(C)C)C(=O)N[C@@H](Cc2c[nH]cn2)C(=O)N[C@@H](CC(N)=O)C(=O)N[C@H](C(N)=O)C(C)C)NC(=O)[C@H](CC(=O)O)NC(=O)[C@H](CO)NC(=O)[C@H](C)NC1=O [Peptide K508A] (Ac-EKI[S5]QSL[S5]FI[S5]ASD[S5]LLHNV-NH2; staple 4-8, 11-15) | 76 |  |  | none of these variants were able to compete | 10.9 ± 13.9 |
| CC[C@H](C)[C@H](NC(=O)[C@H](Cc1ccccc1)NC(=O)[C@]1(C)CCCC=CCCC[C@](C)(NC(=O)[C@@H](NC(=O)[C@H](CCCCN)NC(=O)[C@H](CCC(=O)O)NC(C)=O)[C@@H](C)CC)C(=O)N[C@@H](CCC(N)=O)C(=O)N[C@@H](CO)C(=O)N[C@@H](CC(C)C)C(=O)N1)C(=O)N[C@@]1(C)CCCC=CCCC[C@@](C)(C(=O)N[C@@H](CC(C)C)C(=O)N[C@@H](CC(C)C)C(=O)N[C@@H](Cc2c[nH]cn2)C(=O)N[C@@H](CC(N)=O)C(=O)N[C@H](C(N)=O)C(C)C)NC(=O)[C@H](CC(=O)O)NC(=O)[C@H](C)NC(=O)[C@H](CCCCN)NC1=O [Peptide S509A] (Ac-EKI[S5]QSL[S5]FI[S5]KAD[S5]LLHNV-NH2; staple 4-8, 11-15) | 62 |  |  | none of these variants were able to compete | 82 ± 1.56 |
| CC[C@H](C)[C@@H]1NC(=O)[C@H](Cc2ccccc2)NC(=O)[C@@](C)(NC(=O)[C@H](CC(C)C)NC(=O)[C@H](CO)NC(=O)[C@H](CCC(N)=O)NC(=O)[C@H](CC(N)=O)NC(=O)[C@@H](NC(=O)[C@H](CCCCN)NC(=O)[C@H](CCC(=O)O)NC(C)=O)[C@@H](C)CC)CCCC=CCCC[C@@](C)(C(=O)N[C@@H](CO)C(=O)N[C@@H](CC(=O)O)C(=O)N[C@@]2(C)CCCC=CCCC[C@@](C)(C(=O)N[C@H](C(N)=O)C(C)C)NC(=O)[C@H](Cc3c[nH]cn3)NC(=O)[C@H](CC(C)C)NC(=O)[C@H](CC(C)C)NC2=O)NC(=O)[C@H](C)NC1=O [Peptide R507A] (Ac-EKINQSL[S5]FIA[S5]SD[S5]LLH[S5]V-NH2; staple 8-12, 15-19) | 45 |  |  | none of these variants were able to compete | 175 |

— publication PMC5365662, “A Short Double-Stapled Peptide Inhibits Respiratory Syncytial Virus Entry and Spreading” (Antimicrobial Agents and Chemotherapy, 2017)
